The record followed here is US20120065187A1 (ALCON RESEARCH, LTD, priority 2008, published 2012).

One test addresses T1, human H4 (Homo sapiens, UniProt Q9H3N8).
T1 construct: host or cells: CHO-K1
The test is described as follows: In vitro histamine receptor cell-based assay (aequorin bioluminescence), H4 antagonism. In short, it runs like this: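 Antagonism read as loss of aequorin luminescence after histamine (EC80 final) addition, following 15 min room-temperature compound pretreatment of coelenterazine-h-loaded (5 μM) CHO-K1 cells co-expressing human H4 and Gα16. Efficacy given relative to 10 μM JNJ7777120; agonism excluded in separate no-histamine runs.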

The target of the next test is T2, human H1 (Homo sapiens, UniProt P35367).
T2 construct: host or cells: CHO-K1
The test is described as follows: In vitro histamine receptor cell-based assay (aequorin bioluminescence), H1 antagonism. As to conditions: CHO-K1 cells expressing human H1 and aequorin; histamine at EC80; read-out: H1 Antagonist EC50. In short, it runs like this: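 Antagonism read as drop in aequorin luminescence after histamine challenge at a predetermined EC80, following 15 min compound pretreatment at room temperature. Cells: CHO-K1 carrying human H1, or H4 with Gα16; signal as AUC or amplitude, normalised to 10 μM diphenhydramine (H1) or JNJ7777120 (H4).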

Where [1] appears, read: CHO-K1 cells expressing human H4, aequorin and Gα16, histamine at EC80, read-out: H4 Antagonist EC50.

Structures can show the parent of a compound that is named as a salt. Where two headings read alike, the source gives them in different places.

T2 sequence (P35367 whole entry): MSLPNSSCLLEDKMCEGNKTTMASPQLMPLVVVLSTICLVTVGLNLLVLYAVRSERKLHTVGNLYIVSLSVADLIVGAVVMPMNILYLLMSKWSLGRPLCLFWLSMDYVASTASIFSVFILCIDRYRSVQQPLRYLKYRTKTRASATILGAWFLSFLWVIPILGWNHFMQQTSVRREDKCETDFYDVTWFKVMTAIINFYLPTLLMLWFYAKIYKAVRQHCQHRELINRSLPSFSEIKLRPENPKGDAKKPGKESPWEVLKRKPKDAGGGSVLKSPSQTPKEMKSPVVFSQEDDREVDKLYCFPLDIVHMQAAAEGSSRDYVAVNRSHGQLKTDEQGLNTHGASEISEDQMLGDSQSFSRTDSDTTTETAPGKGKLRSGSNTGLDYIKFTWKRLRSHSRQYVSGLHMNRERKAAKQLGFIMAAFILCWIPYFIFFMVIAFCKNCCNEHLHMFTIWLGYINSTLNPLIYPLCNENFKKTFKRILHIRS
T1 sequence (Q9H3N8 whole entry): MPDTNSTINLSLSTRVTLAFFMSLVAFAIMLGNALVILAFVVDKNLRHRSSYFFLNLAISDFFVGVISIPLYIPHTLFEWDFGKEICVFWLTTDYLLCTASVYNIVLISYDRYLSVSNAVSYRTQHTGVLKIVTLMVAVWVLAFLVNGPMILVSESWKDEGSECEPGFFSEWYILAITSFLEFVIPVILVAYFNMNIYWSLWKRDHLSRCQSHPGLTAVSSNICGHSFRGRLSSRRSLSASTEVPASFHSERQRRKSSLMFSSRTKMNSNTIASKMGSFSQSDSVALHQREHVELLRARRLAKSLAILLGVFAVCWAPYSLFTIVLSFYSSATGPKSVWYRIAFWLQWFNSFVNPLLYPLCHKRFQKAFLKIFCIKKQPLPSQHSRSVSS

Regarding `Clc1cc2nc(N3CCNCC3)c3nncn3c2cc1Cl` [Example 168, 7,8-dichloro-4-(piperazin-1-yl)-[1,2,4]triazolo[4,3-a]quinoxaline], the concentration giving a half-maximal response (EC50) – broadly, the concentration needed to bring the measured effect to its halfway point – on human H4 (setting [1]) was less than 10 µM; at human H1 it was greater than 10 µM.
The corresponding values for `Fc1c(C(F)(F)F)ccc2nc(N3CCNCC3)c3nncn3c12` [Example 169, 9-fluoro-4-(piperazin-1-yl)-8-(trifluoromethyl)-[1,2,4]triazolo[4,3-a]quinoxaline] are less than 10 µM and greater than 10 µM.
The corresponding values for `CN1CCN(c2nc3c(F)c(C(F)(F)F)ccc3n3cnnc23)CC1` [Example 170, 6-fluoro-4-(4-methylpiperazin-1-yl)-7-(trifluoromethyl)-[1,2,4]triazolo[4,3-a]quinoxaline] are less than 10 µM and greater than 10 µM.
The corresponding values for `Fc1c(C(F)(F)F)ccc2nc(N3CCNCC3)c3nnnn3c12` [Example 172, 9-fluoro-4-(piperazin-1-yl)-8-(trifluoromethyl)tetrazolo[1,5-a]quinoxaline] are less than 10 µM and greater than 10 µM.
Regarding `CC(C)c1ccc2nc(N3CCN(C)CC3)c3nncn3c2c1` [Example 173, 8-isopropyl-4-(4-methylpiperazin-1-yl)-[1,2,4]triazolo[4,3-a]quinoxaline], the figures for the EC50 on human H4 (setting [1]) and at human H1 were less than 10 µM and greater than 10 µM, respectively.
For `C/C=C/c1ccc2nc(N3CCN(C)CC3)c3nncn3c2c1` [Example 174, (E)-4-(4-methylpiperazin-1-yl)-8-(prop-1-enyl)-[1,2,4]triazolo[4,3-a]quinoxaline], the results for the EC50 on human H4 (setting [1]) and at human H1 were less than 10 µM and greater than 10 µM, respectively.
The corresponding values for `CCCc1ccc2nc(N3CCN(C)CC3)c3nncn3c2c1` [Example 175, 4-(4-methylpiperazin-1-yl)-8-propyl-[1,2,4]triazolo[4,3-a]quinoxaline] are less than 10 µM and greater than 10 µM.
For `CC(C)Nc1ccc2nc(N3CCN(C)CC3)c3nncn3c2c1` [Example 176, N-isopropyl-4-(4-methylpiperazin-1-yl)-[1,2,4]triazolo[4,3-a]quinoxalin-8-amine], in that order: greater than 10 µM and greater than 10 µM.
For `CN1CCN(c2nc3ccc(C(F)(F)F)cc3n3ccnc23)CC1` [Example 177], in that order: less than 10 µM and greater than 10 µM.
Consider `FC(F)(F)c1ccc2nc(N3CCNCC3)c3nccn3c2c1` [Example 178, 4-(piperazin-1-yl)-8-(trifluoromethypimidazo[1,2-a]quinoxaline hydrochloride], for which the EC50 at human H4 (setting [1]) was less than 10 µM; at human H1, greater than 10 µM.
The corresponding values for `CN1CCN(c2nc3cc(F)c(Cl)cc3n3ccnc23)CC1` [Example 179] are less than 10 µM and greater than 10 µM.
The corresponding values for `Fc1cc2nc(N3CCNCC3)c3nccn3c2cc1Cl` [Example 180, 8-chloro-7-fluoro-4-(piperazin-1-yl)imidazo[1,2-a]quinoxaline] are less than 10 µM and less than 10 µM.
The corresponding values for `CN1CCN(c2nc3cc(F)c(F)cc3n3ccnc23)CC1` [Example 181, 7,8-difluoro-4-(4-methylpiperazin-1-yl)imidazo[1,2-a]quinoxaline] are less than 10 µM and greater than 10 µM.
As to `Fc1cc2nc(N3CCNCC3)c3nccn3c2cc1F` [Example 182, 7,8-difluoro-4-(piperazin-1-yl)imidazo[1,2-a]quinoxaline], the EC50 at human H4 (setting [1]) and on human H1 was less than 10 µM each time.
`FC(F)(F)c1ccc2c(c1)nc(N1CCNCC1)c1nccn12` [Example 183, 4-(piperazin-1-yl)-7-(trifluoromethyl)imidazo[1,2-a]quinoxaline hydrochloride]: the EC50 on human H4 and on human H1 was greater than 10 µM in each case.
As to `Fc1cc2nc(N3CCNCC3)c3nncn3c2cc1Br` [Example 184, 8-bromo-7-fluoro-4-(piperazin-1-yl)-[1,2,4]triazolo[4,3-a]quinoxaline], the EC50 at human H4 (setting [1]) was less than 10 µM; on human H1, greater than 10 µM.
For `CN1CCN(c2nc3cc(F)c(Br)cc3n3cnnc23)CC1` [Example 185, 8-bromo-7-fluoro-4-(4-methylpiperazin-1-yl)-[1,2,4]triazolo[4,3-a]quinoxaline], in that order: less than 10 µM and greater than 10 µM.
For `Fc1cc2nc(N3CCNCC3)c3nnnn3c2cc1C(F)(F)F` [Example 186, 7-fluoro-4-(piperazin-1-yl)-8-(trifluoromethyl)tetrazolo[1,5-a]quinoxaline], in that order: less than 10 µM and greater than 10 µM.
As to `CN1CCN(c2nc3cc(F)c(C(F)(F)F)cc3n3nnnc23)CC1` [Example 187, 7-fluoro-4-(4-methylpiperazin-1-yl)-8-(trifluoromethyl)tetrazolo[1,5-a]quinoxaline], the results for the EC50 on human H4 (setting [1]) and at human H1 were less than 10 µM and greater than 10 µM, respectively.
For `Fc1cc2nc(N3CCNCC3)c3nnnn3c2cc1Cl` [Example 188, 8-chloro-7-fluoro-4-(piperazin-1-yl)tetrazolo[1,5-a]quinoxaline], in that order: less than 10 µM and greater than 10 µM.
In the case of `CN1CCN(c2nc3cc(F)c(Cl)cc3n3nnnc23)CC1` [Example 189, 8-chloro-7-fluoro-4-(4-methylpiperazin-1-yl)tetrazolo[1,5-a]quinoxaline], the figures for the EC50 on human H4 (setting [1]) and at human H1 were less than 10 µM and greater than 10 µM, respectively.
The corresponding values for `CN1CCN(c2nc3cc(F)c(F)cc3n3nnnc23)CC1` [Example 190, 7,8-difluoro-4-(4-methylpiperazin-1-yl)tetrazolo[1,5-a]quinoxaline] are less than 10 µM and greater than 10 µM.
For `Fc1cc2nc(N3CCNCC3)c3nnnn3c2cc1F` [Example 191, 7,8-difluoro-4-(piperazin-1-yl)tetrazolo[1,5-a]quinoxaline], in that order: less than 10 µM and greater than 10 µM.
For `Fc1cc(Cl)cc2nc(N3CCNCC3)c3nncn3c12` [Example 192, 7-chloro-9-fluoro-4-(piperazin-1-yl)-[1,2,4]triazolo[4,3-a]quinoxaline], in that order: greater than 10 µM and greater than 10 µM.
With `CN1CCN(c2nc3cc(Br)ccc3n3cnnc23)CC1` [Example 193, 7-bromo-4-(4-methylpiperazin-1-yl)-[1,2,4]triazolo[4,3-a]quinoxaline], the EC50 at human H4 (setting [1]) was less than 10 µM; on human H1, greater than 10 µM.
For `Brc1ccc2c(c1)nc(N1CCNCC1)c1nnnn12` [Example 194, 7-bromo-4-(piperazin-1-yl)tetrazolo[1,5-a]quinoxaline hydrochloride], in that order: less than 10 µM and greater than 10 µM.
`CN1CCN(c2nc3cc(Br)ccc3n3nnnc23)CC1` [Example 195, 7-bromo-4-(4-methylpiperazin-1-yl)tetrazolo[1,5-a]quinoxaline]: the figures for the EC50 at human H4 (setting [1]) and on human H1 were less than 10 µM and greater than 10 µM, respectively.
For `Fc1cc(Cl)cc2c1nc(N1CCNCC1)c1nncn12` [Example 196, 8-chloro-6-fluoro-4-(piperazin-1-yl)-[1,2,4]triazolo[4,3-a]quinoxaline], in that order: less than 10 µM and greater than 10 µM.
For `CN1CCN(c2nc3c(F)cc(Cl)cc3n3cnnc23)CC1` [Example 197, 8-chloro-6-fluoro-4-(4-methylpiperazin-1-yl)-[1,2,4]triazolo[4,3-a]quinoxaline], in that order: less than 10 µM and greater than 10 µM.
For `Fc1cc2c(cc1Br)nc(N1CCNCC1)c1nncn12` [Example 198, 7-bromo-8-fluoro-4-(piperazin-1-yl)-[1,2,4]triazolo[4,3-a]quinoxaline], in that order: less than 10 µM and greater than 10 µM.
As to `CN1CCN(c2nc3cc(Br)c(F)cc3n3cnnc23)CC1` [Example 199, 7-bromo-8-fluoro-4-(4-methylpiperazin-1-yl)-[1,2,4]triazolo[4,3-a]quinoxaline], the EC50 is less than 10 µM on human H4 (setting [1]) and greater than 10 µM at human H1.
For `Fc1cc2c(cc1C(F)(F)F)nc(N1CCNCC1)c1nnnn12` [Example 200, 8-fluoro-4-(piperazin-1-yl)-7-(trifluoromethyl)tetrazolo[1,5-a]quinoxaline], in that order: less than 10 µM and greater than 10 µM.
The corresponding values for `CN1CCN(c2nc3cc(C(F)(F)F)c(F)cc3n3nnnc23)CC1` [Example 201, 8-fluoro-4-(4-methylpiperazin-1-yl)-7-(trifluoromethyl)tetrazolo[1,5-a]quinoxaline] are less than 10 µM and greater than 10 µM.
In the case of `Cc1nc2c(N3CCN(C)CC3)nc3ccc(C(F)(F)F)cc3c2o1` [Example 214, 2-methyl-4-(4-methylpiperazin-1-yl)-8-(trifluoromethyl)oxazolo[4,5-c]quinoline], the EC50 is less than 10 µM on human H4 (setting [1]) and greater than 10 µM on human H1.
On to `Cc1nc2c(N3CCNCC3)nc3ccc(C(F)(F)F)cc3c2o1` [Example 215, 2-methyl-4-(piperazin-1-yl)-8-(trifluoromethyl)oxazolo[4,5-c]quinoline], for which the concentration for a half-maximal effect (EC50) is less than 10 µM at human H4 (setting [1]) and greater than 10 µM on human H1.
For `Cc1nc2c(N3CCN(C)CC3)nc3cc(F)c(Cl)cc3c2o1` [Example 216, 8-chloro-7-fluoro-2-methyl-4-(4-methylpiperazin-1-yl)oxazolo[4,5-c]quinoline], the EC50 on human H4 (setting [1]) was less than 10 µM; on human H1 it was greater than 10 µM.
For `Cc1nc2c(N3CCNCC3)nc3cc(F)c(Cl)cc3c2o1` [Example 217, 8-chloro-7-fluoro-2-methyl-4-(piperazin-1-yl)oxazolo[4,5-c]quinoline], in that order: less than 10 µM and greater than 10 µM.
